Reference: ChEMBL document CHEMBL1201862, “PubChem BioAssay data set” (2004)
The source made the active and inactive calls.

Tests used:
P388/ADR = assay: cells; assay type: functional; conditions: Mus musculus, P388/ADR
SN12K1 = assay: cells; assay type: functional; conditions: Homo sapiens
P388 = assay: cells; assay type: functional; conditions: Mus musculus
Fatty acid synthase [1] = target: T1, Fatty acid synthase (Homo sapiens, UniProt P49327); assay: inhibition of human FAS-TE enzyme activity – biochemical, endpoint fluorescence intensity, uHTS hits, dose response (AID 624327); assay type: functional;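 further: fluorescence from hydrolysis of an O-methyl fluorescein acyl ester substrate by the enzyme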
T1 sequence (P49327 whole entry): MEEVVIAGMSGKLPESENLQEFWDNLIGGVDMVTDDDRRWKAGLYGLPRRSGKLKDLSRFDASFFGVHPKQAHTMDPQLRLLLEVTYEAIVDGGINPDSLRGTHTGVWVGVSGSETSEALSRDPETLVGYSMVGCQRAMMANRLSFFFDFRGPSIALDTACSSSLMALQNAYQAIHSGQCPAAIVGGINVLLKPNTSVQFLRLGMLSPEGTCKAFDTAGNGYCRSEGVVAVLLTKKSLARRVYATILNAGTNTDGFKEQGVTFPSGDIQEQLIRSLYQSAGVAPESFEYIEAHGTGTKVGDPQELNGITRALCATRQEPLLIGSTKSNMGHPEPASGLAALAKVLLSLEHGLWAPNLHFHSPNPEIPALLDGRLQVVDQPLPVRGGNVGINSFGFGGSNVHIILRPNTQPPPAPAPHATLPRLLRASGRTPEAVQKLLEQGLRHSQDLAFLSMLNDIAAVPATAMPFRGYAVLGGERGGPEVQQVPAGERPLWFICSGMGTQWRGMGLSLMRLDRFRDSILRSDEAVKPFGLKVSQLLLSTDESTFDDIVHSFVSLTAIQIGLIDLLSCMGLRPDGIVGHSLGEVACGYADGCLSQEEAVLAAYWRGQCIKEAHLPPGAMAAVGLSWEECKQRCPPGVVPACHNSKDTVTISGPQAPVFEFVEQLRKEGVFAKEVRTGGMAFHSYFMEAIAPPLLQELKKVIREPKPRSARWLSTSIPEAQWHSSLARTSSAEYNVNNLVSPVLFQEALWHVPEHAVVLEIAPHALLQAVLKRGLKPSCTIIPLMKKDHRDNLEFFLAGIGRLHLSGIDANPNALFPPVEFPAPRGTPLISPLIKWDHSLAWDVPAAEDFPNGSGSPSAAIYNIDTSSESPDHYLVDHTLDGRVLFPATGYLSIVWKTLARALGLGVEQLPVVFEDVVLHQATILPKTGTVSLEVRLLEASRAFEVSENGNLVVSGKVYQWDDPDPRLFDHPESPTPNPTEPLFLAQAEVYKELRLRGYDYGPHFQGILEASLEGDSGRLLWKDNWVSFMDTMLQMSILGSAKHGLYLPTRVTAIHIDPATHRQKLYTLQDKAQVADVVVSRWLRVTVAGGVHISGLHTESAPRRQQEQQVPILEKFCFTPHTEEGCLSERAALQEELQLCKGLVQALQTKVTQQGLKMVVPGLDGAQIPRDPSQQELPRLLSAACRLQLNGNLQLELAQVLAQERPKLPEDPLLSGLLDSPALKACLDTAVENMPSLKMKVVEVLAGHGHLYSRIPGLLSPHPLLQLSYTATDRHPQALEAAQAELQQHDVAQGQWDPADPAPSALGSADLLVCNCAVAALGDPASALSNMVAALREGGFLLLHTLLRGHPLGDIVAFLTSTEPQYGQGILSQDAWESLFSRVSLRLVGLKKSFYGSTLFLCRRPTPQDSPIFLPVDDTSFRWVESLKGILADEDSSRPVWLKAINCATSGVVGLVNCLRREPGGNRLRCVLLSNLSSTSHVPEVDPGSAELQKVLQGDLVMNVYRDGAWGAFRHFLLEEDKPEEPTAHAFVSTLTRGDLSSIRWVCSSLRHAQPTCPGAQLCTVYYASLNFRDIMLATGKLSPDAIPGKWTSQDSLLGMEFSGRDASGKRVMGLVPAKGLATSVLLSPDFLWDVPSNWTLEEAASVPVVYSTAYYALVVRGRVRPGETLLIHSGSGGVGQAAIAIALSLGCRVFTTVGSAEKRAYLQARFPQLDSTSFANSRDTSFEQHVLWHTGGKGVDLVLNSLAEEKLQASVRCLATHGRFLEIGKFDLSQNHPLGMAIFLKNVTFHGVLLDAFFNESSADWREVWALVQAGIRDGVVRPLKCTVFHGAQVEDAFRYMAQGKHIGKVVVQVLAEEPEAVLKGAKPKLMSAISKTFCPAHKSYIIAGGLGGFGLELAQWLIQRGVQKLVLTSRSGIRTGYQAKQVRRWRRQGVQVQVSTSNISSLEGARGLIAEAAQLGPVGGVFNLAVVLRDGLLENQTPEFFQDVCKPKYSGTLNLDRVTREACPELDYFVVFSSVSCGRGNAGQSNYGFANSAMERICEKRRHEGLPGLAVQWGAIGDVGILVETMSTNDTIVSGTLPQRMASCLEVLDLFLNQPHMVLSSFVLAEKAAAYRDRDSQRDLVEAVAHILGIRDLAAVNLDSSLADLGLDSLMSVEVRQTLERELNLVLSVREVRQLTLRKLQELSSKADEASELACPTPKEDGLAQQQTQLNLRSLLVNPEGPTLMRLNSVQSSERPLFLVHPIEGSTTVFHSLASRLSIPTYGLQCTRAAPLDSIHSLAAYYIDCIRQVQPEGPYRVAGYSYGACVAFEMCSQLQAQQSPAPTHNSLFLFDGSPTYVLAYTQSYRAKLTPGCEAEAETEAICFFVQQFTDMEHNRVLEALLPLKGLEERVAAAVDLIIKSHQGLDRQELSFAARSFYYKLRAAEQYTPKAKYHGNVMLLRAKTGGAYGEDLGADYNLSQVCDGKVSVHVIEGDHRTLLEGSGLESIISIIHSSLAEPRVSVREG

Fatty acid synthase [2] = target: T1, Fatty acid synthase; assay: inhibition of human FAS-TE enzyme activity – biochemical, kinetic fluorescence intensity, dose response (AID 624326); assay type: functional;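 further: rate of fluorescence rise from hydrolysis of a fluorogenic O-methyl fluorescein ester substrate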
Interleukin-8 [3] = target: T2, Interleukin-8 (Homo sapiens, UniProt P10145); assay: Dose Response confirmation of uHTS small molecule hits for cystic fibrosis induced NFkb Inhibitors in a TNFa-induced IL8 counterscreen.; assay type: functional; conditions: read-out: IC50_Mean
T2 sequence (P10145 whole entry): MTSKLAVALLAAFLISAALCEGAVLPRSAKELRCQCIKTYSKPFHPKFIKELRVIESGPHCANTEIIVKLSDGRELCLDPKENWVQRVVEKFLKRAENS

Interleukin-8 [4] = target: T2, Interleukin-8; assay: Dose Response confirmation of uHTS small molecule hits for cystic fibrosis induced NFkb Inhibitors in a PAF-induced IL8 counterscreen.; assay type: functional; conditions: read-out: IC50_Mean
[5] = target: Heat shock protein HSP 90-alpha (Homo sapiens, UniProt P07900); assay type: functional, organism-based
Melanocortin receptor 4 = Melanocortin receptor 4 (Homo sapiens, UniProt P32245); assay: inhibitors of MC4R cAMP signaling – cell-based, TR-FRET, biased antagonists, dose response (AID 602298); assay type: functional;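 further: antagonist potency against agonist-stimulated cAMP production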
Chain of Melanocortin receptor 4 (P32245 whole entry): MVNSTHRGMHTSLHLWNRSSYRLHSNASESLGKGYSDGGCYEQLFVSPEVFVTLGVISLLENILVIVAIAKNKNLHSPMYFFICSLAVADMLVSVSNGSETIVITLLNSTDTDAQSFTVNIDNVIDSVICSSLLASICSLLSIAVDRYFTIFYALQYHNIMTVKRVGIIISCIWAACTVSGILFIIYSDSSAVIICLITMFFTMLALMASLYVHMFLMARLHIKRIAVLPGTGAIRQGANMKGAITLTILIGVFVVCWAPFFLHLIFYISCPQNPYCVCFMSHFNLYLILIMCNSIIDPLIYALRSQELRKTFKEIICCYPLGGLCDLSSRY

[6] = cAMP pathway inhibition in counterscreen cell line – TR-FRET cAMP detection, counter-screen for MC4R biased antagonist project, dose response (AID 602305); assay type: functional, cell-based;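 further: U2OS cells stimulated with forskolin near its EC80 as the cAMP inducer; potency is for inhibition of forskolin-stimulated cAMP signaling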
[7] = viability loss in HeLa cells – cytotoxicity control for MgcRacGAP inhibitor project, dose response (AID 624300); assay type: functional
[8] = target: T3, Rac GTPase-activating protein 1 (Homo sapiens, UniProt Q9H0H5); assay: blockers of MgcRacGAP-driven Rac1 GTP hydrolysis – biochemical, ADP Hunter fluorescence, primary and confirmatory, confirmation (AID 624330); assay type: functional
T3 sequence (Q9H0H5 whole entry): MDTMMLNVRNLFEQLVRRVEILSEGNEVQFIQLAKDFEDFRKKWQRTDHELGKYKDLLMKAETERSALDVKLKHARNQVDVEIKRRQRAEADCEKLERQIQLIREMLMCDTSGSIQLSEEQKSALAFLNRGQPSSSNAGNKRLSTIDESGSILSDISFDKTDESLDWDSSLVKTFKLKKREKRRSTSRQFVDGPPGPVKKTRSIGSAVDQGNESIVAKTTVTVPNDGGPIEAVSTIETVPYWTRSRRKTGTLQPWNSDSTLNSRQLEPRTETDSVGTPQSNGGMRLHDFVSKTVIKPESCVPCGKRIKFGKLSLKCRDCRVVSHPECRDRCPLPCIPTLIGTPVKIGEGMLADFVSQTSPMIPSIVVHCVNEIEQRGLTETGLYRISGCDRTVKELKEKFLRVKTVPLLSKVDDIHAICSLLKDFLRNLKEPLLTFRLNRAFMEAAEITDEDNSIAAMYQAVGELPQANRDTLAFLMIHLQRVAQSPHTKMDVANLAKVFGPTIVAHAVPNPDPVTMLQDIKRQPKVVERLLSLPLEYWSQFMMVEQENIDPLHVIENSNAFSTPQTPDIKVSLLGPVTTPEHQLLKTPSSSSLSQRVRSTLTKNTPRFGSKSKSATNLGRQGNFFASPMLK

[9] = HGIII-sPLA2 enzyme inhibition potency – biochemical, QFRET, IC50, dose response (AID 743457);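 further: green fluorescence rise as the enzyme cleaves BODIPY PC-A2 in liposomes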
[10] = Trypanosoma cruzi growth suppression in host cells – NIH3T3 host cells, beta-gal luminescence, confirmation (AID 2044); assay type: functional, cell-based;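 further: intracellular parasites grown in NIH/3T3 mouse fibroblasts as host cells; luminescent beta-galactosidase reporter signal from transgenic T. cruzi replicating inside host cells; inhibitors lower the luminescence signal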
[11] = NIH3T3 cell viability loss – ATP luminescence, mouse fibroblasts, counter-screen, dose response (AID 2010); assay type: functional, cell-based;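 further: cells exposed to compound for about 90 hours before reading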
Vero = assay: cells; assay type: functional; conditions: Chlorocebus sabaeus
[12] = target: 26S proteasome non-ATPase regulatory subunit 14 (Homo sapiens, UniProt O00487); assay: inhibition of proteasome subunit RPN11 – biochemical, fluorescence polarization, uHTS hits, confirmation (AID 602368); assay type: functional
Chain of 26S proteasome non-ATPase regulatory subunit 14 (O00487 whole entry): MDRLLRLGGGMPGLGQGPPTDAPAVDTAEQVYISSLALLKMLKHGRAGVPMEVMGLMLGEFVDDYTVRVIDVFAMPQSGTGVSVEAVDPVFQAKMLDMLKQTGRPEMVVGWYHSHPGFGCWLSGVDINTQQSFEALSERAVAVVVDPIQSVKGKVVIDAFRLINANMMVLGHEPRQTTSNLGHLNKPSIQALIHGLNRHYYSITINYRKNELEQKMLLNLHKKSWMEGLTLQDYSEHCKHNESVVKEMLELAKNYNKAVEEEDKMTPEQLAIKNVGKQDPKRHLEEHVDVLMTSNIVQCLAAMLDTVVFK

[13] = target: 72 kDa type IV collagenase (Homo sapiens, UniProt P08253); assay: Dose Response validation of uHTS RPN11 inhibitor hits using a MMP-2 Fluorescence assay.; assay type: functional
Chain of 72 kDa type IV collagenase (P08253 whole entry): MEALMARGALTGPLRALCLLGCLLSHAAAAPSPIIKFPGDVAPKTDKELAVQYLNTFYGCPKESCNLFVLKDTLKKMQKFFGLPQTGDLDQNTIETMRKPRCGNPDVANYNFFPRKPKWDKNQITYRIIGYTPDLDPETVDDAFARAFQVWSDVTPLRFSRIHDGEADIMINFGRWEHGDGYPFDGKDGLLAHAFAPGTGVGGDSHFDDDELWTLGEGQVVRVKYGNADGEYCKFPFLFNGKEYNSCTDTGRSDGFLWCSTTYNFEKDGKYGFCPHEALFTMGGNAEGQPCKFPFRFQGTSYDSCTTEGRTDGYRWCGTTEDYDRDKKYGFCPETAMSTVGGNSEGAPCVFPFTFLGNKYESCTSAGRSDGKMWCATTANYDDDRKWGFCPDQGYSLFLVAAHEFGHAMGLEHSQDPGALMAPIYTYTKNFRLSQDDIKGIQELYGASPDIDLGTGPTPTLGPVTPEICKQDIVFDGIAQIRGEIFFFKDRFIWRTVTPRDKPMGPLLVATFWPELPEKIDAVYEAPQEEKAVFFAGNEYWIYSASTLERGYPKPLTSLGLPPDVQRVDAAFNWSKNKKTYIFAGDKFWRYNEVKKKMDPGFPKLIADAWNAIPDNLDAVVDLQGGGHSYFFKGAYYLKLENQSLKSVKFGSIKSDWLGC

Prothrombin = Prothrombin (Bos taurus, UniProt P00735); assay: thrombin protease inhibitors – biochemical, fluorescence polarization, uHTS hits, dose response (AID 602369); assay type: functional
[14] = reduction of Shn3 3'UTR-driven luciferase in osteoblasts – cell-based, Clone20 osteoblasts, firefly luciferase, cherry-picked, dose response (AID 624132); assay type: functional;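 further: firefly luciferase luminescence from reporter carrying the Shn3 3'UTR in osteoblasts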
[15] = loss of viability in HepG2 cells – cell-based, CellTiter-Glo, cherry-picked, cytotoxicity control for Shn3 inhibitor project, dose response (AID 624134); assay type: functional
[16] = non-specific 3'UTR reporter inhibition in Clone20-Shn3RL – cell-based, Renilla luciferase, cherry-picked, counter-screen for Shn3 inhibitor project, dose response (AID 624133); assay type: functional
[17] = target: T4, Tyrosine-protein phosphatase non-receptor type 7 (Homo sapiens, UniProt P35236); assay: HePTP tyrosine phosphatase activity blockers – biochemical, absorbance, leukemia target, primary screen (AID 521); assay type: functional
T4 sequence (P35236 whole entry): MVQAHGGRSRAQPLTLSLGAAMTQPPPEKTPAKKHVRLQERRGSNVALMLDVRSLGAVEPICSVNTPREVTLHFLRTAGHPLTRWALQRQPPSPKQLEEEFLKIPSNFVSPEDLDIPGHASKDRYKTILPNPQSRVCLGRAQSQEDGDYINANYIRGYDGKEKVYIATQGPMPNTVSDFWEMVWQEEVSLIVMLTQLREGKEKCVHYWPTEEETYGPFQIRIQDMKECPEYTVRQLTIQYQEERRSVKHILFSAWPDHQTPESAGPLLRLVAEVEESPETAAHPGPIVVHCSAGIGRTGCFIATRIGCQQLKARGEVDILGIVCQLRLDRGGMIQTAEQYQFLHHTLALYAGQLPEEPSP

Cysteine protease ATG4B = target: T5, Cysteine protease ATG4B (Homo sapiens, UniProt Q9Y4P1); assay type: functional;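 further: Fluorescence-based dose-response confirmation assay measuring inhibition of ATG4B activity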
T5 sequence (Q9Y4P1 whole entry): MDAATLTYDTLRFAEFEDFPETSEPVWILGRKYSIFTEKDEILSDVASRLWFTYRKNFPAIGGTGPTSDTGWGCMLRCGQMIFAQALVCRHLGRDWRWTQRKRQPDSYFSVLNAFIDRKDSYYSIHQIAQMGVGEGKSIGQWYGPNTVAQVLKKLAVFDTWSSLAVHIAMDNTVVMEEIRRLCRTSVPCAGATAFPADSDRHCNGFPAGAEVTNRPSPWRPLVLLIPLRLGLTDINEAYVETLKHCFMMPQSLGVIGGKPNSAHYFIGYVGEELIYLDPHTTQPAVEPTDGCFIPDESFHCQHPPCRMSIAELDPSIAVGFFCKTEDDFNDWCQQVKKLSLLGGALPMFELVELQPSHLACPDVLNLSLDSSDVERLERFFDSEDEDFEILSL

Phospholipase A2 = Phospholipase A2 (Homo sapiens, UniProt P04054); assay type: functional;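 further: confirmatory dose-response counterscreen on phospholipase A2, testing hits that came from an ultra-high-throughput screen for ATG4B inhibitors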
[18] = target: Disintegrin and metalloproteinase domain-containing protein 17 (Homo sapiens, UniProt P78536); assay: inhibition of ADAM17 substrate cleavage – biochemical, quenched FRET substrate, counter-screen for ADAM10 exosite inhibitor project, dose response (AID 743253)
Chain of Disintegrin and metalloproteinase domain-containing protein 17 (P78536 whole entry, the tested form may be a part): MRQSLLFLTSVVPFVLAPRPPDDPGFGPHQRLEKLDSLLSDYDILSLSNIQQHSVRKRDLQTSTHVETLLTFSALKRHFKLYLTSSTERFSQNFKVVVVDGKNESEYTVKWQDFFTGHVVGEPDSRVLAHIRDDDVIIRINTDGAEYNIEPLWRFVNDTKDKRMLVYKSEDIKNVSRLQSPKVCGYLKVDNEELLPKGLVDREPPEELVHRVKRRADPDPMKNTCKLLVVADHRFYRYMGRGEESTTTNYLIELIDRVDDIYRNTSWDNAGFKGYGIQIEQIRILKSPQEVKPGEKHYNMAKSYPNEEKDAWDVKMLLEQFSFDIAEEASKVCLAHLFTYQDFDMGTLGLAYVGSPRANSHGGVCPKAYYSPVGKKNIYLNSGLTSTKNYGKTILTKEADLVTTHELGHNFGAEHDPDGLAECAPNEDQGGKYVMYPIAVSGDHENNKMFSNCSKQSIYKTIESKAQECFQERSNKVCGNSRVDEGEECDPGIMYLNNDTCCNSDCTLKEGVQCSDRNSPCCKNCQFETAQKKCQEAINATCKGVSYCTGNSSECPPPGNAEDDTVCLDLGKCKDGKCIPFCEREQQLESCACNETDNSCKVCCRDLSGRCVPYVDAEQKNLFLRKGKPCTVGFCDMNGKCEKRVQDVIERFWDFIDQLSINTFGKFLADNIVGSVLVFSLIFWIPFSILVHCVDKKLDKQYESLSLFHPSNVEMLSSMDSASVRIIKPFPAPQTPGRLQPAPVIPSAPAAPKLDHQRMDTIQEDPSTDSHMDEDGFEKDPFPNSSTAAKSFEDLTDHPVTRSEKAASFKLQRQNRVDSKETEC

[19] = target: Photoreceptor-specific nuclear receptor (Homo sapiens, UniProt Q9Y5X4); assay type: functional, cell-based;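 further: CHO-S cells with Gal4-NCOR and VP16-NR2E3 two-hybrid luciferase reporter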
Chain of Photoreceptor-specific nuclear receptor (Q9Y5X4 whole entry, the tested form may be a part): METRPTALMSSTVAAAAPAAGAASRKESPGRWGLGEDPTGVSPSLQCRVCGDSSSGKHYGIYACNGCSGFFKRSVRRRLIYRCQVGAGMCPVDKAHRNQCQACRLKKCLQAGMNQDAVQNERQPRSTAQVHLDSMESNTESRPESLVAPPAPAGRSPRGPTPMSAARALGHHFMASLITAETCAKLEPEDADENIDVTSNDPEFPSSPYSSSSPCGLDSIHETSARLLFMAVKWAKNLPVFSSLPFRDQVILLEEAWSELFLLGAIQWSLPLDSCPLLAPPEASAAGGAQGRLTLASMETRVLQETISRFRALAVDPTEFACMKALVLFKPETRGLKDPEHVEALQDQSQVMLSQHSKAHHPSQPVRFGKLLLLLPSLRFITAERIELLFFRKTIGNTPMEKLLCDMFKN

[20] = target: Luciferin 4-monooxygenase (Photinus pyralis, UniProt P08659); assay: inhibition of purified Photinus pyralis luciferase – biochemical, luminescence, dose response (AID 1891)
[21] = Luminescence Cell-Based Dose Confirmation HTS to Identify Inhibitors of Platelet Dense Granule Release. [Related pubchem assays: 1663 (Primary HTS), 1678 (Summary of Project)]; assay type: functional
Galanin receptor type 3 = target: T6, Galanin receptor type 3 (Homo sapiens, UniProt O60755); assay: Fluorescence-based cell-based primary high throughput dose response assay to identify antagonists of the Galanin Receptor 3 (GalR3).; assay type: functional
T6 sequence (O60755 whole entry): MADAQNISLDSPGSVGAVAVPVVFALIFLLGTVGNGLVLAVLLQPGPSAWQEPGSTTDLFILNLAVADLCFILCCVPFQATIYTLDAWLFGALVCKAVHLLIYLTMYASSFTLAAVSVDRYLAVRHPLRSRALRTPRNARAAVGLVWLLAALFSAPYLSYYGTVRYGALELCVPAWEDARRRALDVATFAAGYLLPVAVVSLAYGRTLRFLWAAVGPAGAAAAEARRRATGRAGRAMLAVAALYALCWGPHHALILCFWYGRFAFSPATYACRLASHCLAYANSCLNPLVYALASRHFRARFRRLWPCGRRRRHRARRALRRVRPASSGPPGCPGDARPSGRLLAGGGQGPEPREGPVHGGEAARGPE

cells = assay type: functional, cell-based; conditions: HEK-CNG

## N/C(=N\O)N/N=C/c1ccc2c(c1)OCCO2
P388/ADR
  GI50: 12.8 µM (inactive)
SN12K1
  GI50: 2.88 µM (inactive)
P388
  GI50: 13.1 µM (inactive)

## O=C(COC(=O)c1cccc([N+](=O)[O-])c1)NCc1cccs1
Fatty acid synthase [1]
  IC50: 13.9 µM (active)
Fatty acid synthase [2]
  IC50: 18.7 µM (active)

## O=C(CC12CC3CC(CC(C3)C1)C2)Nc1nncs1
Interleukin-8 [3]
  IC50: 3.19 µM (active)
Interleukin-8 [4]
  IC50: 9.42 µM (active)

## COc1ccc(/C=C/C(=O)c2cc(Br)ccc(=O)c2O)cc1
[5]
  AC50: 4.22 µM (active)

## O=[N+]([O-])c1cc(C(F)(F)F)cc2c1SC1=Nc3ccccc3CN12
P388/ADR
  GI50: > 100 µM (inactive)
SN12K1
  GI50: > 100 µM (inactive)
P388
  GI50: > 100 µM (inactive)

## COCOc1ccc(OC)cc1
P388/ADR
  GI50: > 100 µM (inactive)
SN12K1
  GI50: > 100 µM (inactive)
P388
  GI50: > 100 µM (inactive)

## Cc1ccc(/N=C/c2cc3c(cc2O)OC(N)=C(C#N)C3c2ccccc2)cc1 (stereo not drawn)
Interleukin-8 [3]
  IC50: > 79 µM (inactive)
Interleukin-8 [4]
  IC50: 5.76 µM (active)

## N/C(=N/O)N/N=C\c1cc(Cl)cc(Cl)c1O
P388/ADR
  GI50: 0.998 µM (active)
SN12K1
  GI50: 0.366 µM (active)
P388
  GI50: 0.0182 µM (active)

## Cc1ncn(-c2ccc(C(=O)Oc3ccccc3)cn2)n1
Melanocortin receptor 4
  IC50: > 64.5 µM (inactive)
[6]
  IC50: > 64.5 µM (inactive)

## COc1cc(/C=N/NC(=O)c2cccc(NC(=O)c3ccccc3C)c2)ccc1O
[7]
  CC50: 100 µM (active)
[8]
  IC50: 35.9 µM (active)

## COc1cc2c(cc1NC(=O)C(Cl)Cl)-c1ccc(NC(=O)C(Cl)Cl)cc1C2
[7]
  CC50: 10.3 µM (active)
[8]
  IC50: 58.4 µM (active)

## N=C(N)SCc1ccc(Cl)c2ccccc12
[9]
  IC50: > 122 µM (inactive)

## COc1cccc(C(=O)Oc2cc3c4c(c2)C(C)=CC(C)(C)N4C(=O)C3=O)c1
[9]
  IC50: 43.2 µM (inactive)

## N=C(N)N/N=C/c1ccc(Cl)cc1Cl
[10]
  EC50: 0.204 µM (active)
[11]
  EC50: 19.4 µM (active)
Vero
  CC50: 18.9 µM (active)
[7]
  CC50: 66.3 µM (active)

## CCc1ccccc1OCC(=O)Nc1ccc(N2CCCC2)cc1C
[12]
  IC50: 46.2 µM (active)
[13]
  IC50: 89 µM (active)
Prothrombin
  IC50: 9.96 µM (active)

## Cc1nc2ccc([N+](=O)[O-])cc2c(=O)n1Cc1ccc(Cl)cc1
Fatty acid synthase [1]
  IC50: 0.906 µM (active)
Fatty acid synthase [2]
  IC50: 1.05 µM (active)

## Cc1n[nH]c2ccc(-c3cncc(OC[C@@H](N)Cc4c[nH]c5ccccc45)c3)cc12 [A-443654]
[14]
  AC50: 1.77 µM (active)
[15]
  AC50: 7.4 µM (active)
[16]
  AC50: 2.85 µM (active)

## COc1ccc(-c2n[nH]c(C(F)(F)F)c2-c2cc3ccccc3o2)c(O)c1
[17]
  IC50: > 100 µM (not active)
Cysteine protease ATG4B
  IC50: 9.42 µM (active)
Phospholipase A2
  IC50: 7.64 µM (active)
[18]
  IC50: > 69.5 µM (inactive)

## CCOC(=O)C1CCN(C(=O)COc2ccc([N+](=O)[O-])cc2)CC1
Fatty acid synthase [1]
  IC50: 9.85 µM (active)
Fatty acid synthase [2]
  IC50: 9.05 µM (active)

## Cc1nc(NC(=O)c2c(-c3ccccc3Cl)noc2C)sc1C
[19]
  IC50: 4.19 µM (active)

## CSCCC(NC(=O)c1ccc([N+](=O)[O-])cc1Cl)C(=O)OC(C)C(=O)NCc1ccco1 (stereo not drawn)
Melanocortin receptor 4
  IC50: > 64.6 µM (inactive)
[6]
  IC50: 47.4 µM (inactive)

## CCOC(=O)C1=C(Nc2ccc(OC)cc2)S/C(=C\c2ccc(-c3ccccc3C(=O)O)o2)C1=O
[12]
  IC50: 17.8 µM (active)
[13]
  IC50: > 100 µM (inactive)
Prothrombin
  IC50: 13.1 µM (active)

## CCC1(O)C(=O)OCc2c1cc1n(c2=O)Cc2cc3cc(O)ccc3nc2-1 (stereo not drawn)
[19]
  IC50: 4.21 µM (active)
Interleukin-8 [3]
  IC50: 40.5 µM (inactive)
Interleukin-8 [4]
  IC50: 3 µM (active)

## CC1CC(=O)NN=C1c1ccc(N)c([N+](=O)[O-])c1 (stereo not drawn)
[20]
  EC50: > 112 µM (not active)
[21]
  EC50: < 0.088 µM (active)
Galanin receptor type 3
  IC50: 0.26 µM (active)
cells
  EC50: > 29.9 µM (inactive)
